Measured values reported in patent US12178825B2, “Method and compositions for forming a copper-containing complex and uses thereof” (COLD SPRING HARBOR LABORATORY, priority 2017, dated 2024).
Entries after “also recorded” stand apart in the source; their conditions may differ.

Key:
[1] = ESI-MS analysis of complex formation with copper salts; assay type: binding
Procedure: (§1) Eight equivalents of M(NO3)2·xH2O or MSO4·xH2O (M=Cu, Zn) were reacted with 1 eq. of DPM-1001 (1 mM in H2O). The reaction solutions were stirred at RT, 40° C. and 80° C. for 2 h. Mass spectra were recorded on a Bruker Esquire 6000 HCT quadrupole ion trap instrument (Bruker Daltonik GmbH, Leipzig, Germany), equipped with an electrospray ionization (ESI) source. Generation of the molecular formula of the DPM-1001/Cu(II) species and the comparison between the theoretical (simulated) and the measured isotopic patterns was performed using the DataAnalysis 4.0 software (Bruker).
Eight equivalents of M(NO3)2·xH2O or MSO4·xH2O were reacted with 1 eq. of DPM-1001, DPM-1003 or analog 2 (1 mM in H2O). The reaction solutions were stirred at RT, 40° C. and 80° C. for 2 h. Each sample was diluted 5-fold in 50% methanol, 0.1% formic acid and loaded into a 500 μL syringe. A Thermo Vantage triple quadrupole mass spectrometer (Thermo Scientific), equipped with an HESI spray source was coupled to an Accela HPLC system (Thermo Scientific). Mobile phase A consisted of 0.1% formic acid and mobile phase B consisted of 0.1% formic acid in methanol. Isocratic flow was set to 50% B at 200 μL/min. 200 μl samples were injected into the LC flow line via syringe pump at 10 μL/min and electrosprayed into the Vantage triple quadrupole mass spectrometer. A spray voltage of 4.3 kV was used along with a capillary temperature of 350° C. Each full MS scan was 0.5 s and data were collected with a scan range of 200 m/z to 900 m/z over 1 min.
Binding of compounds of Formula I other than DPM-1001 was also confirmed. In an ESI-MS test, compound DPM-1013 as hydrochloride salt was dissolved in distilled water at a concentration of 2 mM freshly before testing. It was then mixed with an equal volume copper sulfate (16 mM) or copper chloride solution (16 mM) for 2 h, rendering a concentration of DPM-1013 at 1 mM and the copper salt 8 mM. The mixture was then further diluted 100-fold before injection into an ESI-MS, making a final concentration of DPM-1013 of 10 μM and Cu 80 μM in the test.
Binding percentage=peak intensity of all DPM-1013-Cu complex/(peak intensity of all DPM-1013-Cu complex+peak intensity of free DPM-1013).

[2] = ESI-MS analysis of complex formation with zinc salts; assay type: binding; details: ZnSO4 or Zn(NO3)2, ESI-MS
Procedure: as §1

[3] = tested on: insulin receptor β subunit, AKT; assay: Insulin signaling in liver of treated mice; assay type: in vivo
Description: The antibodies used in the study were purchased from: Upstate Biotechnology (pTyr, catalog 05-321, clone 4G10); Invitrogen (pY1162/1163-IR-β, catalog 700393, clone 97H9L7); Santa Cruz Biotechnology Inc. (IR-β, catalog sc-711, clone C711); Cell Signaling
Technology (JAK2, catalog 3230, clone D2E12; p-T308 AKT (catalog 13038, clone D25E6); AKT (catalog 4691, clone C67E7) and Sigma-Aldrich (actin, catalog A2228, clone AC-74).
All protocols were approved by the Institutional Animal Use and Care Committee of Cold Spring Harbor laboratory. 10 week-old male mice fed chow diet or high-fat diet (D12492) were acclimatized for 10 days under standard conditions before experiments. Mice were injected intraperitoneally (i.p.) once daily with vehicle, 5 mg/kg of DPM-1001 intraperitoneally or orally for 50 days. Mice were euthanized after 6 h of fasting, and serum samples were collected to measure the metabolic parameters and tissue samples were collected for studying changes in signaling.

TNBC cells [4] = assay: Cellular copper levels by ICP-MS; assay type: cell-based
Procedure: TNBC cells (1×10^6) were plated in a 10-cm culture dish in growth medium. About 24 h after seeding cells, they were untreated or treated with DPM-1001 (2 uM) or DPM-1003 (2 uM) for 2 h. Following which, cells were washed three times with PBS. Then, 215 μl of concentrated nitric acid (BDH Aristar Ultra) was added to each sample and incubated overnight. Samples were boiled at 95° C. for 1 h. and approximately 150 μl of each sample was further diluted in 2 ml 2% nitric acid (made freshly from concentrated nitric acid and Milli-Q water). Samples were analyzed on a Thermo Fisher iCAP Qc ICP mass spectrometer in kinetic energy discrimination (KED) mode against a calibration curve of known copper and phosphorus concentrations, with Ga (20 μg/l, Inorganic Ventures) as an internal standard. Each experiment was carried out twice and each condition was repeated in at least triplicate.

AGS cells = assay: Cell survival; assay type: cell-based
Procedure: (§2) The MTT assay was used to evaluate cell survival in the absence and presence of different compounds. The thiazolyl blue tetrazolium bromide (MTT) was dissolved in phosphate buffered saline (PBS) at a concentration of 5 mg/ml, filtered, and stored at 4° C. About 10,000 cells were seeded into a 96-well plate and cultured in growth medium containing serum. After 24 hours, cells were treated with the indicated concentrations of DPM-1001 or DPM-1003 (0-100 uM) for 2 hrs. Following which 20 μl MTT was added into each well. An ELISA plate reader (Biotek, Winooski, Vermont, USA) was used to measure the optical density at 490 nm.

KATOIII cells = assay: Cell survival; assay type: cell-based
Procedure: as §2

MDA-MB-468 cells = assay: Cell survival; assay type: cell-based
Procedure: as §2

N87 = assay: Cell survival; assay type: cell-based
Procedure: as §2

NIH 3T3 cells = assay: Cell survival; assay type: cell-based
Procedure: as §2

SNU1 = assay: Cell survival; assay type: cell-based
Procedure: as §2

SNU5 cells = assay: Cell survival; assay type: cell-based
Procedure: as §2

TNBC cells [5] = assay: Immunoblot of copper-induced signaling; assay type: cell-based; details: co-administration
Description: Equal quantities of lysates were isolated from indicated cell lines and then resolved by SDS-PAGE and immunoblotted with one of the following primary antibodies: mouse anti-MEK1/2, rabbit anti-p-PAK1, rabbit anti-PAK1, rabbit anti-ERK1/2, rabbit anti-phospho(Ser 217/221)-MEK1/2, rabbit anti-phospho(Thr 202/Tyr 204)-ERK1/2, rabbit anti-phospho (Ser 338)-c-RAF, rabbit anti-RAF, rabbit anti-phospho (Ser 112)-BAD and rabbit anti-BAD (Cell Signaling Technology), mouse anti-β-actin (Sigma), followed by detection with one of the following horseradish peroxidase-conjugated secondary antibodies: goat anti-rabbit IgG, goat anti-mouse IgG (Invitrogen), mouse anti-rabbit light-chain-specific IgG (Jackson ImmunoResearch Laboratories) using enhanced chemiluminescence (ECL; GE Healthcare) or SuperSignal West Femto Chemiluminescent substrate (Pierce) detection reagents.

With `COC(=O)CCC(C)C1CCC2C3C(O)CC4CC(NCCCCNCc5ccccn5)CCC4(C)C3CCC12C` (centres unmarked) [DPM-1001] the “complex formation with copper” value [1] was “Formed a Stable Complex with Copper(II)”, the “complexation with Zn(II)” value [2] was “no complexation” and the AKT phosphorylation [3] was “phosphorylation of AKT; also recorded: enhanced AKT phosphorylation”. For the same compound, the “tyrosine phosphorylation of insulin receptor β subunit” value ([3]; insulin-stimulated, orally or intraperitoneally) was “increased insulin-stimulated insulin receptor phosphorylation; also recorded: marked increase in β-subunit phosphorylation”, the cellular copper levels (TNBC cells [4]) was “depletion of copper; also recorded: reduces cellular copper levels” and the “survival of AGS cells” value (AGS cells) was “inhibited survival; also recorded: inhibitory effect”. The “survival of KATOIII cells” value (KATOIII cells) was “inhibited survival; also recorded: inhibitory effect”, the “survival of MDA-MB-468 cells” value (MDA-MB-468 cells) was “inhibitory effect” and the “survival of N87 cells” value (N87) was “inhibited survival; also recorded: inhibitory effect”. For the same compound, the “survival of NIH 3T3 cells” value (NIH 3T3 cells) was “no effect on survival”, the “survival of SNU1 cells” value (SNU1) was “inhibited survival” and the “survival of SNU5 cells” value (SNU5 cells) was “inhibited survival; also recorded: inhibitory effect”. The “copper-induced increase of pS338-RAF1 and pS112-BAD” value (TNBC cells [5]; 5-10 μM copper in culture media) was “reduced or blocked” and the “copper-induced increase of phospho-PAK1” value (TNBC cells [5]; copper added to culture media) was “blocked”.
